Results taken from patent US12391646B2, “Using adiponectin receptor agonists to treat inflammation and bone diseases in diabetes” (Trustees of Tufts College, priority 2020, dated 2025).

Tests used:
Type in all cases: cell-based
[1] = system: RAW 264.7 cells in high glucose medium; experiment: Osteoclastogenesis and autophagy of RANKL-treated RAW 264.7 cells in high glucose medium; details: for RANKL-induced mRNA expression of Cathepsin K and TRAP: high glucose 25 mM, AdipoRon 20 μM; for LC3 mRNA, LC3II protein and LC3 puncta: high glucose medium with RANKL
Experimental: FIG. 20 RAW 264.7 cells were treated with RANKL (100 ng/ml) with or without AdipoRon ([…]) or AdipoAI (5 μM) in low (5 mmol/l) glucose, 20 mmol/l D-mannitol or high (25 mmol/l) glucose medium. qRT-PCR analysis of cathepsin K (A), TRAP (B) and microtubule associated protein 1 light chain 3 (LC3) (C), and mRNA expression were calculated (n≥3). (D) Western blot analysis of LC3A/B protein levels normalized to β-actin. (E) The mean of protein/β-actin ratios normalized to 1.0 (RANKL-AdipoRon-AdipoAI-H group) quantified by densitometry. (F) Autophagosome images obtained with laser confocal microscopy after the RAW 264.7 cells were transfected with a GFP-LC3 plasmid and treated with RANKL and AdipoRon or AdipoAI (scale bar=50 μm). Data are shown as mean±SD. *, P<0.05. **P<0.01. ***P<0.001.
FIG. 21 Autophagy inhibitor reverses AdipoAI-inhibited osteoclastogenesis in high glucose medium. RAW 264.7 cells were treated with RANKL (100 ng/ml) in 2 days and with or without AdipoAI (5 μM) for 24 hours followed by 3-methyladenine (3-MA, 2.5 mM) treatment for another 24 hours in high glucose medium. qRT-PCR analysis of cathepsin K (A), TRAP (B) and LC3 (C) mRNA expression were calculated (n≥3). (D) Western blot analysis of LC3A/B protein levels normalized to β-actin. (E) The mean of protein/β-actin ratios normalized to 1.0 (3-MA-, RANKL-, AdipoAI-group) quantified by densitometry. Data are shown as mean±SD. *, P<0.05. **P<0.01. ***P<0.001.
FIG. 22 AdipoAI-induced autophagy of osteoclasts in high glucose medium via AKT1/mTOR signaling pathway. RAW 264.7 cells were induced with RANKL for 2 days and then treated with or without (5 μM) additional 24 hours after serum starvation for 4 hours. Then, the cells were treated with RANKL, AdipoAI or SC79 (5 μM), an AKT activator, for another 24 hours in high glucose medium. qRT-PCR analysis of mRNA expression of cathepsin K (A), TRAP (B) and LC3 (C) were calculated (n≥3). (D) Representative images show the protein expression levels of AKT, p-AKT, AKT1, p-AKT1, mTOR, p-mTOR, and LC3A/B in osteoclasts. Quantitative analysis of bands is shown in (E-K) (n≥3). Data are shown as mean±SD. *, P<0.05. **P<0.01. ***P<0.001. R: RANKL. A, AI: AdipoAI. SC5: SC79 (5 μM).
(§1) RAW 264.7 cells (ATCC, Manassas, VA, USA) were cultured and passaged in DMEM supplemented with 10% (v/v) FBS (Invitrogen, Grand Island, NY, USA) and 1% Penicillin-Streptomycin (Gibco, Gaithersburg, MD, USA). For the induction of osteoclastogenesis, RAW 264.7 cells were cultured 24 in α-MEM supplemented with 10% FBS and 1% Penicillin-Streptomycin in the presence of 100 ng/ml RANKL (Peprotech, Rocky Hill, NJ, USA) for 2 days, and subsequently treated or not with AdipoRon or AdipoAI for another 2 days changing cell culture medium every 2 days. After a total of […] of culture, morphologic examination was performed, as was mRNA and protein expression. To simulate high glucose environment in vitro, α-MEM was supplemented with D-glucose to 25 mmol/l (high glucose) or 5 mmol/l (physiological glucose). 20 mmol/l D-mannitol served as an osmotic control.
(§2) Total RNA was isolated from cell cultures and gingival soft tissues using TriZol reagent (Life Technologies, Carlsbad, CA, USA) according to the manufacturer's instructions^24. Reverse transcription was performed using the PrimeScript RT Master Mix (Takara Bio, Otsu, Japan) and real-time-qPCR analyses were performed using SYBR-Green Real-Time PCR Master Mix (Takara Bio, Otsu, Japan) as described earlier^27.
Total cellular extracts were prepared using RIPA Lysis and Extraction Buffer containing three Protease Inhibitors (Santa Cruz, Dallas, TX, USA). Western blot analyses were performed as previously described 24. Antibodies for β-actin (1:2000) and GAPDH (1:5000), LC3A/B (1:1000), AKT1 (1:1000), p-AKT1 (1:1000), AKT (1:1000), p-AKT (1:1000), mTOR (1:1000), p-mTOR (1:1000) were purchased from Abcam and Cell Signaling Technology, respectively. SC79, an AKT activator was purchased from Sigma Aldrich. […]

[2] = system: LPS-stimulated RAW 264.7 macrophages; experiment: qPCR of cytokine mRNA in LPS-stimulated RAW 264.7 macrophages; details: for expression of anti-inflammatory cytokine IL-10: LPS-induced macrophages; for IL-10 expression, longer treatments / IL-10 mRNA expression, treatment for 18 h or less: macrophages; for IL-10 expression, longer treatments: longer than 18 h; for IL-10 mRNA expression, treatment for 18 h or less: no LPS
[3] = system: RAW 264.7 cells (osteoclast differentiation); experiment: RANKL-induced osteoclast differentiation of RAW 264.7 cells; details: for number of osteoclast-like cells (TRAP staining): co-culture with RANKL 6 days, AdipoRon 20 μM, AdipoAI 5 μM
Experimental: as §1, §2

[4] = higher concentration, RANKL 100 ng/ml
[5] = AdipoAI 5 μM, RANKL, high glucose medium

| Compound | RANKL-induced mRNA expression of Cathepsin K and TRAP ([1]; AdipoAI 5 μM) | LC3 mRNA, LC3II protein and LC3 puncta [1] | expression of anti-inflammatory cytokine IL-10 [2] | IL-10 expression, longer treatments [2] | IL-10 mRNA expression, treatment for 18 h or less [2] | downregulation of TRAP mRNA expression ([3]; 5 μM, RANKL 100 ng/ml) | number of osteoclast-like cells (TRAP staining) [3] | inhibition of TRAP mRNA expression [3, 4] | inhibition of cathepsin K mRNA expression [3, 4] | expression of AKT [1, 5] | expression of LC3II [1, 5] | reduction of phosphorylation of AKT [1, 5] | reduction of phosphorylation of AKT1 [1, 5] | reduction of phosphorylation of mTOR [1, 5] | TNF-α expression levels ([2]; LPS-induced Raw264.7 macrophage, BMMs or PEMs (data not shown)) | downregulation of cathepsin K mRNA expression ([3]; 5 μM, RANKL 100 ng/ml) |
| --- | --- | --- | --- | --- | --- | --- | --- | --- | --- | --- | --- | --- | --- | --- | --- | --- |
| O=C(COc1ccc(C(=O)c2ccccc2)cc1)NC1CCN(Cc2ccccc2)CC1 [AdipoRon, reference compound] | decreased the RANKL-induced mRNA expression of osteoclastogenesis markers | increased the mRNA expression of LC3, protein expression of LC3II and LC3 puncta | downregulated expression of the anti-inflammatory cytokine IL-10 | decreased IL-10 expression | increased IL-10 mRNA expression | no significant inhibition in TRAP mRNA expression | significantly reduced the number of osteoclast-like cells | 64.5% | 65.1% |  |  |  |  |  |  |  |
| COc1ccc(CN2CCC(NC(=O)COc3ccc(C(=O)c4ccc(Cl)cc4)cc3)CC2)cc1 [Compound 3] | decreased the RANKL-induced mRNA expression of osteoclastogenesis markers | increased the mRNA expression of LC3, protein expression of LC3II and LC3 puncta | downregulated expression of the anti-inflammatory cytokine IL-10 | decreased IL-10 expression | increased IL-10 mRNA expression | 97.0% | significantly reduced the number of osteoclast-like cells |  |  | inhibits the expression of AKT | promotes the expression of LC3II | 21% | 40% | 25% | did not inhibit TNF-α expression levels | 87.5% |
